Data from patent US10800815B2, “Kv1.3 potassium channel antagonists” (cgtx-Peptide Development GmbH, priority 2014, dated 2020).
Read-outs that look alike come from different tables or passages of the source.

Tests used:
in vivo = format: in vivo; details: rat, i.v., 750 μg/kg BW; listed as cgtx-544
Experimental: FIG. 34 Decrease of cgtx-544(Sing) in the serum of treated rats after i.v. injection. The concentration of unbound circulating cgtx-544(Sing) was calculated on the basis of a standard curve. Standard error of the mean is depicted in the error bars (n=6).
Rats received i.v. injections of cgtx-544(Sing) (750 μg/kg BW). Blood was withdrawn at time points 0, 1, 10 and 60 minutes. Subsequently, serum was prepared from blood samples. The cgtx-544 content in these samples was analyzed electrophysiologically by measuring the blocking effect on Kv1.3 channels expressed in CHO cells. […] In order to study the amount of unbound cgtx-544(Sing) in the rat, the amount of cgtx-544(Sing) present in the circulating blood at the time points referred above was calculated through a calibration curve. This calibration curve was obtained by adding known quantities of cgtx-544(Sing) to blood serum and subsequent electrophysiological measurements on Kv1.3 channels. The block of Kv1.3 currents by these spiked samples was similar to that obtained with cgtx-544(Sing) in the absence of serum (data not shown).

Kv1.5 = target: T1, Kv1.5 (Homo sapiens, UniProt P22460); assay: Patch-clamp measurement of Kv1.5 channel inhibition (Example 1); format: cell-based; details: up to a concentration of 10 μM
T1 construct: expressed in transfected cells; host or cells: Sf21 insect cells, baculovirus infection
T1 sequence (P22460 whole entry): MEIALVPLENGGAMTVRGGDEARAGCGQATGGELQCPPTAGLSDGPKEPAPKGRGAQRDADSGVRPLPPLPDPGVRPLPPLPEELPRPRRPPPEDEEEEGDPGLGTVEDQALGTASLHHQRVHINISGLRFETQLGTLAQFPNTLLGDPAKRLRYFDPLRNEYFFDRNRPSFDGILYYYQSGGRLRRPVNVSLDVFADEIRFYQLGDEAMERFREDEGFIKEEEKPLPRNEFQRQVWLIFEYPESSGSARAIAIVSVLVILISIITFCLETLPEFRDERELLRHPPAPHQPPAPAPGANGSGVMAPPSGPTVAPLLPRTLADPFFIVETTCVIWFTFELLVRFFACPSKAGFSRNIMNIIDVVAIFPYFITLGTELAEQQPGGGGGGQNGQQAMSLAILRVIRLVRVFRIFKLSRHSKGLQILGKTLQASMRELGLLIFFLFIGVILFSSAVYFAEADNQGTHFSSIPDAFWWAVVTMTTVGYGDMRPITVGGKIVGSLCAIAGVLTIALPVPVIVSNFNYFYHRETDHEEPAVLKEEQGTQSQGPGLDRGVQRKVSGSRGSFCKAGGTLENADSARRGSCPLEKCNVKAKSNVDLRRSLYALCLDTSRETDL
Experimental: FIGS. 1A-1F Measurement of Kv1.3 (FIGS. 1B and 1E), Kv1.5 (FIGS. 1C and 1F) and Kv1.1 (FIGS. 1A and 1D) channel inhibition by patch-clamp.
Peptides were dissolved at 1 μg/μl in 20 mM NaPO4 buffer pH 8.2 (1 mg in 1 ml folding buffer) and dialysed against the same buffer 3×1 L, Float-a-Lyzer cut off 500 Da (Spectrapor) at room temperature.
HsTx 1 binding was tested at various concentrations of e.g. 100 pM, 1 nM, 10 nM, 50 nM, 100 nM, 500 nM, and 1 μM—depending on the tested channel. Representative measurements for Kv 1.1, Kv1.3 and Kv1.5 are depicted in FIGS. 1 a), 1 b), and 1 c) respectively.
Cgtx-544 binding was tested at various concentrations of e.g. 1 nM, 10 nM, 50 nM, 100 nM, 1 μM, and 5 μM—depending on the tested channel. Representative measurements for Kv1.1, Kv1.3 and Kv1.5 are depicted in FIGS. 1 d), 1e), and 1) f, respectively.

[1] = target: T2, Kv1.3 channels expressed in Sf21 insect cells (Homo sapiens, UniProt P22001); assay: Stability ex vivo in human blood plasma, read out as IC50 on Kv1.3 (Example 3); format: in vitro ADME
T2 construct: expressed in transfected cells; host or cells: Sf21 insect cells, baculovirus infection
T2 sequence (P22001 whole entry): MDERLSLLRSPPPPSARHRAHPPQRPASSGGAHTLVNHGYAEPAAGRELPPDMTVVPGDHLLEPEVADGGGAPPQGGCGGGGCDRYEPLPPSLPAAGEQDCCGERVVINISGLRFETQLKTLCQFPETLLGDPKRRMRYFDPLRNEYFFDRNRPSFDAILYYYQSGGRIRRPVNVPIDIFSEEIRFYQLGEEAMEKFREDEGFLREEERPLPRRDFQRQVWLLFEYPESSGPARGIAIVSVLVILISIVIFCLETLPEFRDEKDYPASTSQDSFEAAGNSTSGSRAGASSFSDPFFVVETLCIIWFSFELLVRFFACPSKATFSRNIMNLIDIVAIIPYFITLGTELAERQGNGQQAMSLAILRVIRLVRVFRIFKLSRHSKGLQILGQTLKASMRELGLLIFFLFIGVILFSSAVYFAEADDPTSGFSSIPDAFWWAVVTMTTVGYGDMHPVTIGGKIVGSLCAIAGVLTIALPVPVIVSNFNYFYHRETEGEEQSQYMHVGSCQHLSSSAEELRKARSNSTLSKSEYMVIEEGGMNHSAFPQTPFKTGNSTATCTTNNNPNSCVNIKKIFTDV
Experimental: The aim was to test the stability of the cgtx-544 peptide in blood plasma of mammals after different incubation times at room temperature (RT) and 37° C. Stability was defined as IC50 value of cgtx-544 after different incubation times at RT and 37° C. Blood plasma was prepared from fresh blood samples from healthy rats or humans. Heparin was added to fresh blood samples to prevent clogging. Plasma preparation was performed by centrifugation for 2 min at 2000×g at RT.
As the cgtx-544 peptide used in these experiments was incompletely folded, a higher IC50 than normal was determined.
To investigate the stability and activity in plasma the peptide was added to freshly prepared human and rat blood plasma at a final concentration of 2 μM. The samples were split into two aliquots and incubated at 37° C. and at room temperature (RT, 20° C.). For the electrophysiological analysis serial dilutions of the samples were prepared.

[2] = target: T3, Kv1.3 channels endogenously expressed in TEM cells (Homo sapiens, UniProt P22001); assay: Block of Kv1.3 currents in isolated human TEM cells (Example 4); format: cell-based; details: incompletely folded peptide
T3 construct: endogenously expressed Kv1.3 channels in TEM cells; endogenous in cells
T3 sequence (P22001 whole entry): as above
Excerpt: The insect cell line Spodoptera frugiperda (Sf21) was used in combination with a Baculovirus infection system for the heterologous expression of recombinant ion channels. Sf21 cells offer highly specific protein expression and correct posttranslational modifications resulting in functional channels with proposed comparability of electrophysiological parameters of ion channels in vivo. Therefore, it was necessary to compare the electrophysiological properties of the potassium selective ion channel Kv1.3 expressed in Sf21 cells and endogenously expressed Kv1.3 channels in TEM cells.
For the comparison of characteristic voltage dependent Kv1.3 channel activation a typical voltage protocol from −60 mV to +60 mV in 20 mV steps (activation pulse 200 ms) was used. Cells were clamped at a holding potential of −100 mV.
The maximal observed current, which clearly originates from Kv1.3 activity, and the applied voltage allows to assess the total conductivity of all Kv1.3 channels. Accordingly, the number of channels can be extracted using the known conductivity of a single Kv1.3 channel. […] By variation of the infection conditions, it is possible to control the expression level of Kv1.3 in Sf21 cells, according to the needs of the investigation. Under our standard conditions a maximal current of 2-5 nA, a conductance of 33-50 nS and a number of 2500-3800 channels per cell can be estimated. […]

Kv1.3 = Kv1.3 (Homo sapiens, UniProt P22001); assay: Kv1.3 block with prolonged incubation times; format: cell-based
Sequence of Kv1.3 (P22001 whole entry): as above

[3] = Biochemical properties: isoelectric point; format: physicochemical
[4] = test system: white blood cells in peripheral blood; assay: Haematology (WBC, neutrophil granulocytes, lymphocytes) in AIA rats; format: in vivo, rat
Experimental: For the blood withdrawal the animals were narcotized briefly, the tail was disinfected and the tail vein was punctured with a cannula, 50 μl of blood were withdrawn with a heparin coated pipette and mixed with 5 μl of a stabilising agent (CPD) and 1 μl heparin (1.5 U/μl diluted 1:4 in 0.9% NaCl).
White Blood Cells (WBC) were counted with a Coulter Counter in the automatic mode.
Blood samples were taken regularly for monitoring of hematological parameters. Haematological parameters were assessed in all animals weekly before induction, at day of induction and 10 days after induction (days −21, −14, −7, 0 and 10). […] Absolute counts of white blood cells (WBC), neutrophil granulocytes and lymphocytes were analyzed among others, the last two also stated in percentage of total WBC. EDTA whole blood of seven individuals from both vehicle and cgtx-544 peptide therapy group was measured with Sysmex XT-2000i.
For screening the state of health of all individuals, complete haemograms were used again. EDTA whole blood of seven individuals from both MTX high-dose and low-dose therapy groups were measured with Sysmex XT-2000i.V weekly before induction, at day of induction and 4 and 7 days after induction (day −21, −14, −7, 0, 4 and 7; MTX low-dose therapy group additionally on day −3, when i.v. application started).

CC[C@H](C)[C@H](NC(=O)[C@@H](N)[C@@H](C)O)C(=O)N[C@H](C(=O)N[C@@H](CC(N)=O)C(=O)N[C@H](C(=O)N[C@@H](CCCCN)C(=O)N[C@H]1CSSC[C@@H]2NC(=O)[C@H](CCCCN)NC(=O)CNC(=O)[C@H](Cc3ccc(O)cc3)NC(=O)[C@@H]3CCCN3C(=O)[C@@H]3CSSC[C@@H](C(=O)O)NC(=O)[C@H](CCCNC(=N)N)NC(=O)[C@H](CC(N)=O)NC(=O)[C@@H]4CSSC[C@H](NC(=O)[C@@H]5CCCN5C(=O)[C@@H]5CCCN5C(=O)[C@H](CC(C)C)NC(=O)[C@H](CSSC[C@H](NC(=O)[C@H](CCCCN)NC(=O)[C@H](CCCNC(=N)N)NC(=O)[C@H](CC(N)=O)NC(=O)[C@H](CCSC)NC2=O)C(=O)N[C@@H](CCCCN)C(=O)N4)NC(=O)[C@H](CCC(N)=O)NC(=O)[C@H](CCCCN)NC(=O)[C@@H]2CCCN2C(=O)[C@H](CO)NC(=O)[C@H]([C@@H](C)O)NC1=O)C(=O)N[C@@H](CCCCN)C(=O)N[C@@H](C)C(=O)N[C@@H](CCC(N)=O)C(=O)N[C@@H]([C@@H](C)O)C(=O)NCC(=O)N3)C(C)C)[C@@H](C)CC [Compound 7]
in vivo half-life (in vivo): approximately 26 min
binding to Kv1.5 (Kv1.5): no binding
significant change in activity ([1]; 24 h, 37° C. and RT): could not be detected
activity after incubation in plasma ([1]; 48 h at RT): remained unchanged
activity after incubation in plasma ([1]; 14 days at 37° C.): no activity was detected
activity after incubation in plasma ([1]; 14 days at RT): unchanged activity
IC50 ([1]; read-out: IC50 on Kv1.3 after incubation in plasma, 48 h at 37° C.): 37.3 nM
IC50 ([1]; read-out: IC50 on Kv1.3 in plasma, time point 0 h): 20.9 nM
Kv1.3 block on human TEM cells compared with Kv1.3 transfected Sf21 cells [2]: the same values
block of Kv1.3 currents (Kv1.3; long incubation times, i.e. 15 min): 60%
block of Kv1.3 currents (Kv1.3; short incubation times): 20%
Isoelectric point [3]: 9.29
generalized immunosuppression ([4]; 1 mg/kg 1× daily i.v.): did not show a generalized immunosuppression
WBC, neutrophil granulocytes and lymphocytes, absolute and relative cell counts ([4]; curative treatment, 1 mg/kg daily i.v.): comparable to vehicle treated individuals
WBC, neutrophil granulocytes and lymphocytes, absolute and relative cell counts ([4]; preventive treatment, daily i.v. from day −3): comparable to vehicle treated individuals
